According to PMC12207360, “Hyperpolarization Modulation of the T‐Type hCav3.2 Channel by Human Synenkephalin [1–53], a Shrew Neurotoxin Analogue without Paralytic Effects” (Angewandte Chemie (International Ed. in English), 2025):
Where no end group is shown, it is not given here.

Assays:
[1] = test system: glutamyl endopeptidase (Glu-C); assay: Glutamyl endopeptidase (Glu-C) digestion; conditions: intact peptide, without disulfide reduction
Description: (§1) To determine the connectivity of disulfide bonds in synthetic 2, enzymatic digestion and subsequent fragment peptide analysis were performed. […] However, due to high proteolytic stability, analysis of these degraded products provided little information on the disulfide bond connectivity in 2. To perform stepwise S‐alkylation with limiting reduction of disulfide bonds,^[ [52], [53] ^] 2 was denatured with 6 M aq. guanidine hydrochloride (GdmCl)/0.1 M aq. citrate, followed by tris(2‐carboxyethyl)phosphine (TCEP) reduction and Michael addition to N‐ethylmaleimide (NEM). As a result, we obtained six kinds of S‐alkylated products (2SS‐a/b/c and 1SS‐a/b/c) with one or two disulfide bonds cleaved, respectively, along with unreacted 2 (3SS) and a fully S‐alkylated product (0SS) (Scheme 1a and Figure S4a). HPLC‐purified 1SS‐a (3) and 1SS‐b (4), which have different patterns of four Cys(S‐Nem) residues, were then reduced with DTT and alkylated with iodoacetamide.

[2] = test system: human T-type voltage-gated calcium channel (hCav3.2); assay: Whole-cell patch-clamp of voltage-gated Ca2+ currents in HEK293T cells expressing hCav3.2; format: cell-based; conditions: 0.74 µM, n = 5
Description: Normalized conductance (G/G max) was generated for both data sets, fit to a Boltzmann equation, and is shown as data ± S.E.M. (n = 5). Statistical analyses were performed using Dunnett's multiple comparison tests. ^* p < 0.05 versus control. […]
Electrophysiological assays were done on human Cav3.2 channel, which was expressed on human embryonic kidney 293T (HEK293T) cells using Lipophectamine® 3000 transfection reagent. A pcDNA3 plasmid construct containing the complete sequence coding the human α1H-subunit of the Cav3.2 channel flanked by a green fluorescent protein was kindly provided by Prof. Edward Perez–Reyes (University of Virginia, Charlottesville, Virginia, USA).S1 Vo l t a g e-gated Ca2+ currents were recorded by the whole-cell patch-clamp technique, as previously described.28,S2 This recording was performed in the whole-cell conﬁguration using an Axopatch 200B Ampliﬁer (Axon CNS, Molecular Devices) at a holding potential of –90 mV. Cells were depolarized from the –90 mV holding potential to +80 mV with +10 mV voltage steps of 200 ms. The current amplitude was measured at the peak. The current density was determined with the cell capacitance to establish the density-voltage curves.
The currents were ﬁltered at 2 kHz and sampled at 5 kHz using an A/D converter, the Digidata 1440A (Axon CNS, Molecular Devices). The leak was subtracted automatically by a P/4 protocol (pclamp10, Axon CNS, Molecular Devices). For the recording Ca2+ currents, the bath solution contained 125 mM N-methyl-D-glucamine, 5 mM 4-aminopyridine, 20 mM tetraethylammonium chloride, 2 mM CaCl2, 2 mM MgCl2, and 10 mM D-glucose and was buffered to pH 7.4 with 10 mM HEPES. The patch pipettes were ﬁlled with solution containing 130 mM CsCl, 10 mM EGTA, 3 mM Mg–AT P, a n d 0 . 4 m M Li–GTP with the pH adjusted to 7.2 by 25 mM HEPES. Statistical analyses were performed using Dunnett’s multiple comparison tests. *, p < 0.05 versus control.
(§2) Circular dichroism spectrometry and stereostructure prediction of hSYN. […]
(§3) In brief, synthetic hSYN [1–53] (2) was dissolved in 50 mM KHPO4, pH 7.0 (ﬁnal concentration: 20 μM) in a 1 mm pathlength cell. The spectrum consisted of ﬁve scans acquired with a scan rate of 20 nm/min and a digital integration time of 2 sec. […]
(§4) Schrödinger, LLC) was used for calculation of surface charge and final image processing which suitable for scientific

[3] = test system: mealworms (larva of Zophobas atratus); assay: Mealworm paralysis bioassay, i.p. injection; format: in vivo; conditions: for Paralyzed/total numbers: 100 µL per 1 g bodyweight, immediate lower-body paralysis
Description: Paralytic activity against mealworms was examined by using synthetic 2 dissolved in saline with mealworms (larva of Zophobas atratus, body weight: 0.7–1.0 g), as described previously.28 Synthetic hSYN was injected into the abdomen of mealworms and observed immediate lower-body paralysis (injection volume: 100 μL per 1.0 g mealworm bodyweight).
Phosphate buffered saline (PBS) was used as a control. […]
HEPES. The patch pipettes were ﬁlled with solution containing 130 mM CsCl, 10 mM EGTA, 3 mM Mg–AT P, a n d 0 . 4 m M […]
as §2, §3, §4

several enzymes = assay: Susceptibility to several enzymes / degradation; conditions: intact hSYN; compared with paralytic effect of BPP2 on mealworms
Description: as §1

trypsin = assay: Trypsin digestion; conditions: intact peptide, without disulfide reduction
Description: as §1

human synenkephalin [1–53] (ECSQDCATCSYRLVRPADINFLACVMECEGKLPSLKIWETCKELLQLSKPELP; disulfide (positions not given here); also: Type II disulfides, places not given here; UniProt P01210 25-77, looked up, fragment) [compound 2, human synenkephalin N-terminal part [1–53], three disulfide bonds Cys(I)–Cys(V), Cys(II)–Cys(IV), Cys(III)–Cys(VI)]
proteolytic stability toward Glu-C [1]: partially digested | lowest current density peak ([2]; at −30 mV (control ca. −59 pA/pF at −10 mV)): ca. −42 pA/pF | voltage of lowest current density peak ([2]; control peak at −10 mV): −30 mV | current density at 0 to +20 mV ([2]; suggesting a block at higher membrane depolarization): significantly reduced | hyperpolarization shift of hCav3.2 activation ([2]; whole-cell patch clamp, HEK293T cells, holding potential –90 mV, pH 7.4, Boltzmann fit, ± S.E.M., p < 0.05 versus control): −15 mV | Paralyzed/total numbers ([3]; 5.0 µg/g bodyweight): 0/4 | Paralyzed/total numbers ([3]; 15 µg/g bodyweight): 0/3 | Paralyzed/total numbers ([3]; 50 µg/g bodyweight): 0/4 | paralytic effect on mealworms ([3]; even at 50 µg g−1 body weight): no paralytic effects on mealworms | enzymatic degradation (several enzymes): susceptible to several enzymes, its degradation was much slower than the paralytic effect of BPP2 on mealworms | proteolytic stability toward trypsin (trypsin): partially digested
